Calls of active or inactive are those of the source. No cut-off for these calls is given here.
Assays:
HeLa [1] = assay: Induction of apoptosis in human HeLa cells assessed as phosphatidylserine externalization after 0.5 to 4 hrs using annexin/PI staining by fluorescence microscopy; type: functional, cell-based
HeLa [2] = assay: Induction of apoptosis in human HeLa cells assessed as chromatin condensation at 8 uM after 12 hrs using Hoechst 33342 staining by fluorescence microscopic analysis; type: functional, cell-based
HeLa [3] = assay: Induction of apoptosis in human HeLa cells assessed as early apoptotic cells at 2 to 4 uM up to 4 hrs using annexin/PI staining by fluorescence microscopy; type: functional, cell-based
HeLa [4] = assay: Cytotoxicity against human HeLa cells assessed as cell viability after 72 hrs by MTT assay; type: functional, cell-based
HeLa [5] = assay: Induction of apoptosis in human HeLa cells assessed as increase in sub-G1 DNA content at 24 uM after 12 hrs using Propidium iodide staining by flow cytometry; type: functional, cell-based
A549 [6] = assay: Cytotoxicity against human A549 cells assessed as cell viability after 48 hrs by MTT assay; type: functional, cell-based; settings: A549, 48 h
Caspase-3 (Homo sapiens) [7] = target: T1, Caspase-3 (Homo sapiens) (UniProt P42574); assay: Induction of caspase 3 activation in human HeLa cells using Ac-DEVD-pNA at 4 uM after 4 hrs by Bradford assay; type: cell-based
T1 sequence (whole entry): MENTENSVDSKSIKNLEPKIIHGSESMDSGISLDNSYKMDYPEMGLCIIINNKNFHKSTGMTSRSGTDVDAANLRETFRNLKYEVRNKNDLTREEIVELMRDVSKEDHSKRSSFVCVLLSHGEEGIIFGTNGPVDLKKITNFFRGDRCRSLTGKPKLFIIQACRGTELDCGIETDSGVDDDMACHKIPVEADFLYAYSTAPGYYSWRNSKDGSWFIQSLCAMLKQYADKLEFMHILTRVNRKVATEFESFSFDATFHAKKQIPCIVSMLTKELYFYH

HeLa [8] = assay: Induction of apoptosis in human HeLa cells assessed as DNA fragmentation at 16 to 32 uM after 24 hrs by agarose gel electrophoresis; type: functional, cell-based
HeLa [9] = assay: Induction of apoptosis in human HeLa cells assessed as DNA fragmentation at 16 uM after 48 hrs by agarose gel electrophoresis; type: functional, cell-based
HeLa [10] = assay: Induction of apoptosis in human HeLa cells assessed as formation of apoptotic bodies at 8 uM after 12 hrs using Hoechst 33342 staining by fluorescence microscopic analysis; type: functional, cell-based
MCF7 [11] = assay: Cytotoxicity against human MCF7 cells assessed as cell viability after 48 hrs by MTT assay; type: functional, cell-based; settings: MCF7, 48 h
HeLa [12] = assay: Induction of apoptosis in human HeLa cells assessed as necrotic cells after 0.5 to 4 hrs using annexin/PI staining by fluorescence microscopy; type: functional, cell-based
HeLa [13] = assay: Induction of apoptosis in human HeLa cells assessed as necrotic cells at 2 to 16 uM using annexin/PI staining by fluorescence microscopy; type: functional, cell-based; settings: TDE = time-dependent effect
Vero [14] = assay: Cytotoxicity against african green monkey Vero cells assessed as cell viability after 72 hrs by MTT assay; type: cell-based; settings: Chlorocebus sabaeus
Caspase-3 (Homo sapiens) [15] = target: T1, Caspase-3 (Homo sapiens); assay: Induction of caspase 3 activation in human HeLa cells using Ac-DEVD-pNA at 8 uM after 4 hrs by Bradford assay; type: cell-based
HeLa [16] = assay: Induction of apoptosis in human HeLa cells assessed as DNA fragmentation at 4 to 32 uM after 12 hrs by agarose gel electrophoresis; type: functional, cell-based
A549 [17] = assay: Cytotoxicity against human A549 cells assessed as cell viability after 72 hrs by MTT assay; type: functional, cell-based; settings: A549, 72 h
HeLa [18] = assay: Induction of apoptosis in human HeLa cells assessed as phosphatidylserine externalization at 2 to 16 uM using annexin/PI staining by fluorescence microscopy; type: functional, cell-based; settings: TDE = time-dependent effect
Vero [19] = assay: Cytotoxicity against african green monkey Vero cells assessed as cell viability after 48 hrs by MTT assay; type: cell-based; settings: Chlorocebus sabaeus
HeLa [20] = assay: Cytotoxicity against human HeLa cells assessed as cell viability after 48 hrs by MTT assay; type: functional, cell-based
Vero [21] = assay: Selectivity index, ratio of IC50 for african green monkey Vero cells to IC50 for human MCF7 cells after 48 hrs
Caspase-3 (Homo sapiens) [22] = target: T1, Caspase-3 (Homo sapiens); assay: Induction of caspase 3 activation in human HeLa cells using Ac-DEVD-pNA after 4 hrs by Bradford assay; type: cell-based
MCF7 [23] = assay: Cytotoxicity against human MCF7 cells assessed as cell viability after 72 hrs by MTT assay; type: functional, cell-based; settings: MCF7, 72 h
Caspase-3 (Homo sapiens) [24] = target: T1, Caspase-3 (Homo sapiens); assay: Induction of caspase 3 activation in human HeLa cells using Ac-DEVD-pNA at 24 uM after 8 hrs by Bradford assay; type: cell-based

| SMILES | IC50 (HeLa [4]) [µM] | IC50 (A549 [6]) [µM] | IC50 (MCF7 [11]) [µM] | IC50 (Vero [14]) [µM] | IC50 (A549 [17]) [µM] | IC50 (Vero [19]) [µM] | IC50 (HeLa [20]) [µM] | Ratio IC50 (Vero [21]) | IC50 (MCF7 [23]) [µM] | further results |
| --- | --- | --- | --- | --- | --- | --- | --- | --- | --- | --- |
| CC1=C(C)C(=O)O[C@@H]([C@@H](C)[C@H]2CC[C@H]3[C@@H]4C[C@H]5O[C@]56[C@@H](O)C=CC(=O)[C@]6(C)[C@H]4CC[C@]23C)C1 | 3.4 | 9 | 6.6 | 2.2 | 1.5 | 1.5 | 4.6 | <1 | 1.1 | Activity (HeLa [1]): Dose-dependent effect; Activity (HeLa [2]): Active; Activity (HeLa [3]): Active; Activity (HeLa [5]): Active; Activity (Caspase-3 (Homo sapiens) [7]): inactive; Activity (HeLa [8]): inactive; Activity (HeLa [9]): inactive; Activity (HeLa [10]): Active; Activity (HeLa [12]): Dose-dependent effect; Activity (HeLa [13]): tde; Activity (Caspase-3 (Homo sapiens) [15]): inactive; Activity (HeLa [16]): inactive; Activity (HeLa [18]): tde; Activity (Caspase-3 (Homo sapiens) [22]): Dose-dependent effect |
| CC1=C(CO)C(=O)O[C@@H]([C@@H](C)[C@H]2CC[C@H]3[C@@H]4C[C@H]5O[C@]56[C@@H](O)C=CC(=O)[C@]6(C)[C@H]4CC[C@]23C)C1 [WITHAFERIN A] | 2.3 | 6.6 | 3.6 | 1.7 | 1.5 | 1.3 | 3 | <1 | 0.6 | Activity (HeLa [1]): Dose-dependent effect; Activity (HeLa [2]): Active; Activity (HeLa [3]): Active; Activity (HeLa [5]): Active; Activity (Caspase-3 (Homo sapiens) [7]): inactive; Activity (HeLa [8]): inactive; Activity (HeLa [9]): inactive; Activity (HeLa [10]): Active; Activity (HeLa [12]): Dose-dependent effect; Activity (HeLa [13]): tde; Activity (Caspase-3 (Homo sapiens) [15]): inactive; Activity (HeLa [16]): inactive; Activity (HeLa [18]): tde; Activity (Caspase-3 (Homo sapiens) [24]): Active; Activity (Caspase-3 (Homo sapiens) [22]): Dose-dependent effect |
| CC1=C(CO)C(=O)O[C@@H]([C@@H](C)[C@H]2CC[C@H]3[C@@H]4C[C@@H](O)[C@]5(C=O)C=CC(=O)[C@]5(C)[C@H]4CC[C@]23C)C1 | > 40 | > 40 | > 40 | > 40 | > 40 | > 40 | > 40 | – | > 40 | – |
| CC1=C(CO)C(=O)O[C@@H]([C@@H](C)[C@@]2(O)CC[C@H]3[C@@H]4C[C@H]5O[C@]56[C@@H](O)C=CC(=O)[C@]6(C)[C@H]4CC[C@@]32C)C1 | 19.8 | > 40 | 16.3 | 21.8 | 31.7 | 28.8 | 17.7 | 1.8 | 10.3 | – |
| CC1=C(CO)C(=O)O[C@@H]([C@@H](C)[C@H]2CC[C@H]3[C@@H]4C[C@H]5O[C@]56C(=O)C=CC(=O)[C@]6(C)[C@H]4CC[C@]23C)C1 | 15.2 | 25.4 | 3.2 | 1.5 | 12.8 | 7.7 | 18.4 | 2.4 | 2.1 | – |
| CC1=C(CO)C(=O)O[C@@H]([C@@H](C)[C@H]2CC[C@H]3[C@@H]4C[C@H]5O[C@]56[C@@H](O)CCC(=O)[C@]6(C)[C@H]4CC[C@]23C)C1 | 19.3 | 33.5 | 14.4 | 9 | 17.2 | 15.5 | 28.9 | 1.1 | 5.4 | – |
| CC1=C(COC(C)(C)OC=O)C(=O)O[C@@H]([C@@H](C)[C@H]2CC[C@H]3[C@@H]4C[C@H]5O[C@]56[C@@H](O)C=CC(=O)[C@]6(C)[C@H]4CC[C@]23C)C1 | 37.3 | > 40 | 26.9 | 18.5 | > 40 | 27.8 | > 40 | 1 | 18.3 | – |
| CC(=O)OCC1=C(C)C[C@H]([C@@H](C)[C@H]2CC[C@H]3[C@@H]4C[C@H]5O[C@]56[C@@H](O)[C@@H](O)CC(=O)[C@]6(C)[C@H]4CC[C@]23C)OC1=O | 8.3 | 18.4 | 9.2 | 4.9 | 21.3 | 8.6 | 8.9 | <1 | 7.1 | – |
| CC1=C(CO)C(=O)O[C@@H]([C@@H](C)[C@H]2CC[C@H]3[C@@H]4C[C@@H](O)[C@]5(C=O)CCC(=O)[C@]5(C)[C@H]4CC[C@]23C)C1 | > 40 | > 40 | > 40 | > 40 | > 40 | > 40 | > 40 | – | > 40 | – |
| CC1=C(CO)C(=O)O[C@@H](/C(C)=C2\[C@@H](O)C[C@H]3[C@@H]4C[C@H]5O[C@]56[C@@H](O)C=CC(=O)[C@]6(C)[C@H]4CC[C@]23C)C1 | 31.1 | > 40 | 27.7 | > 40 | > 40 | > 40 | 40 | <1 | 6 | – |
| CC1=C(CO)C(=O)O[C@@H]([C@@H](C)[C@H]2CC[C@H]3[C@@H]4C[C@H](O)[C@]5(O)[C@@H](O)C=CC(=O)[C@]5(C)[C@H]4CC[C@]23C)C1 | 31.4 | > 40 | 38.4 | 26.9 | 36.4 | 40 | > 40 | 1 | 36.2 | – |
| CC1=C(C)C(=O)O[C@@H]([C@@H](C)[C@H]2CC[C@H]3[C@@H]4C[C@@H](O)[C@]5(C=O)CCC(=O)[C@]5(C)[C@H]4CC[C@]23C)C1 | > 40 | > 40 | > 40 | > 40 | > 40 | > 40 | > 40 | – | > 40 | – |
| CC1=C(CO)C(=O)O[C@@H]([C@@H](C)[C@H]2CC[C@H]3[C@@H]4C[C@H](Cl)[C@]5(O)[C@@H](O)C=CC(=O)[C@]5(C)[C@H]4CC[C@]23C)C1 | 12.1 | 14.7 | 7.5 | 7.8 | 8.6 | 14.8 | 13.4 | 2 | 1.3 | – |
| CC1=C(C)C(=O)O[C@@H]([C@@H](C)C2=CC[C@H]3[C@@H]4C[C@H]5O[C@]56[C@@H](O)C=CC(=O)[C@]6(C)[C@H]4CC[C@]23C)C1 | 8 | 40 | 12.6 | 3.1 | 5.5 | 4.7 | 21.5 | <1 | 2.2 | – |
| Sc1ncnc2nc[nH]c12 [MERCAPTOPURINE ANHYDROUS] | – | – | – | – | – | – | – | 48.3 | – | – |
| CC(=O)OCC1=C(C)C[C@H]([C@@H](C)[C@H]2CC[C@H]3[C@@H]4C[C@H]5O[C@]56[C@@H](O)C=CC(=O)[C@]6(C)[C@H]4CC[C@]23C)OC1=O | 4.7 | 6.7 | 5.3 | 8.5 | 4.4 | 11.4 | 7.7 | 2.2 | 2 | – |
| CC1=C(CO)C(=O)O[C@@H]([C@@H](C)[C@H]2CC[C@H]3[C@@H]4C[C@@H](O)[C@@]5(O)[C@@H](O)[C@@H](O)CC(=O)[C@]5(C)[C@H]4CC[C@]23C)C1 | > 40 | > 40 | > 40 | > 40 | > 40 | > 40 | > 40 | – | > 40 | – |
